IC50 data for 41 molecules are collected here from patent US12448373B2, “Azetidinyl-acetamides as CXCR7 inhibitors” (CHEMOCENTRYX, INC., priority 2021, dated 2025).

SMILES strings stand for the structures.

T1 sequence (P25106 whole entry): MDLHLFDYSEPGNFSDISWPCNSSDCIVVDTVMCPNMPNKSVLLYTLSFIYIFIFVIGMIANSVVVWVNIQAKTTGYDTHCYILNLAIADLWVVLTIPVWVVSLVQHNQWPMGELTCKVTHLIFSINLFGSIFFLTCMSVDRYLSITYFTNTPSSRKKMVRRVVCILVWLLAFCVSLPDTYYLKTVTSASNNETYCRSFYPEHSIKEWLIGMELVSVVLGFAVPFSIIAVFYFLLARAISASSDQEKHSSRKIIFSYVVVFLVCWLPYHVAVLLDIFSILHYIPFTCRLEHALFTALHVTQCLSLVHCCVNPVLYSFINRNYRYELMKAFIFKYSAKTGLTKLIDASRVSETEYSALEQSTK

This experiment concerns the target T1, CXCR7 (Homo sapiens, UniProt P25106).
T1 construct: expressed in transfected cells; host or cells: CHO cells (CHO-CXCR7), transgenes maintained with Hygromycin B and G418
The experiment can be described thus: CXCR7 β-arrestin recruitment assay in CHO-CXCR7 cells (ProLink/EA β-galactosidase complementation), induced by human SDF-1a. Type of experiment: cell-based. Particulars: assay buffer, SDF-1a at EC50 concentration. As to the method:
CXCR7 is fused in frame with a small enzyme donor fragment ProLink and co-expressed in CHO cells stably expressing a fusion protein of β-arrestin and the larger, N-terminal deletion mutant of β-galactosidase (called enzyme acceptor or EA). Activation of the CXCR7 stimulates binding of β-arrestin to the ProLink-tagged CXCR7 and forces complementation of the two enzyme fragments, resulting in the formation of an active β-galactosidase enzyme. The β-galactosidase enzyme activity is measured with a substrate that generates fluorescence.
CHO-CXCR7 cells (0.22×10^6/mL) were cultured in growth medium (Ham's F-12 medium with 10% fetal bovine serum (FBS)), Hygromycin B (200 ug/mL) and G418 (250 ug/mL) were used to maintain the transgenes. The day before the assay, the cells were detached from culture dishes with 0.25% trypsin-EDTA (Corning, Catalog No. 25-053-CI), plated into 96 well plate (2.2×10^5 cells/mL, 100 μL/well) and incubated overnight at 37° C. with 5% CO2. On the day of the assay, cell culture medium was removed and 100 uL of assay buffer (PBS or FBS) was added to each well. 1 μL of compound that were serially diluted in DMSO was added to each well. 5 μL of human SDF-la (Pepro Tech, Catalog No. 300-28A, at EC50 concentration pre-determined on the same day) was then added and mixed to induce CXCR7-mediated β-arrestin recruitment. The plates were incubated for 1.5 hours at 37° C. The assay buffer was removed, 100 μL substrate solution was added and the reaction was carried out at 37° C. for 30 minutes. The substrate solution was prepared by mixing 100 mL Phosphate Buffer (1M, Sigma, Catalog No. P3619-1GA), 100 mL 10% Triton X 100 (Sigma, Catalog No. T8787.), 5 mL MgCl2 (1M, Sigma, Catalog No. M1028), 1.5 mL, β-mercaptoethanol (Gibco, Catalog No. 21985-023.). 3-carboxyumbelliferyl β-D-galactopyranoside (ThermoFisher Scientific, Catalo No. F2905) was added at 0.4 mM right before use. The reaction was then stopped by adding 50 μL of Stop Solution (2.1% w/v Na2CO3) to each well. Fluorescence intensity was measured with a FlexStation 3 microplate reader (Molecular Devices) with the following setting—excitation: 360 nm, emission: 465 nm, manual Gain: 55. IC50 values were calculated with GraphPad Prism using 3 parameter nonlinear regression.
In general terms: Arrestin recruitment assays detect the binding of arrestin to an activated receptor.
One may read the IC50 as the concentration at which inhibition is half-maximal. A low value points to higher potency. `Cc1cc(C)nc(C(C)(C)NC(=O)CC2(NC(=O)c3cc(-c4ccc(F)cc4F)on3)CN(CC3(C)CCC3)C2)n1` [Example 1.001] yielded an IC50 of less than 5 nM.

`CC1(CN2CC(CC(=O)NC(C)(C)c3ccccn3)(NC(=O)c3cc(-c4ccc(F)cc4F)on3)C2)CCC1` [Example 1.002] displayed an IC50 of less than 5 nM. The figure for `Cc1cc(Cl)cc(C(C)(C)NC(=O)CC2(NC(=O)c3cc(-c4ccc(F)cc4F)on3)CN([C@H]3CC[C@](C)(O)CC3)C2)n1` [Example 1.003] is less than 5 nM; for `Cc1ccc(F)c(C(C)(C)NC(=O)CC2(NC(=O)c3nnc(-c4ccc(F)cc4F)s3)CN([C@H]3CC[C@](C)(O)CC3)C2)n1` [Example 1.005] it is less than 5 nM; for `Cc1cc(Cl)cc(C(C)(C)NC(=O)CC2(NC(=O)c3nnc(-c4ccc(F)cc4F)s3)CN([C@H]3CC[C@](C)(O)CC3)C2)n1` [Example 1.006] it is less than 5 nM. To `CC(C)(NC(=O)CC1(NC(=O)c2nnc(-c3ccc(F)cc3F)s2)CN([C@H]2CC[C@](C)(O)CC2)C1)c1cc(Cl)cc(Cl)c1` [Example 1.007] belongs less than 5 nM; to `Cc1ccc(F)c(C(C)(C)NC(=O)CC2(NC(=O)c3cc(-c4ccc(F)cc4F)on3)CN([C@H]3CC[C@](C)(O)CC3)C2)n1` [Example 1.008], less than 5 nM. In turn, `COc1cccnc1C(C)(C)NC(=O)CC1(NC(=O)c2nnc(-c3ccc(F)cc3F)s2)CN([C@H]2CC[C@](C)(O)CC2)C1` [Example 1.009] yielded an IC50 of 5 to 100 nM.

As for `CCC(C)CN1CC(CC(=O)NC(C)(C)c2ccccn2)(NC(=O)c2cc(-c3ccc(F)cc3F)on2)C1` (centres unmarked) [Example 1.010], the IC50 is less than 5 nM.

For the molecule `Cc1ccc(C)c(C(C)(C)NC(=O)CC2(NC(=O)c3nnc(-c4ccc(F)cc4F)s3)CN([C@H]3CC[C@](C)(O)CC3)C2)n1` [Example 1.011], the IC50 is less than 5 nM. To `Cc1cccnc1C(C)(C)NC(=O)CC1(NC(=O)c2nnc(-c3ccc(F)cc3F)s2)CN([C@H]2CC[C@](C)(O)CC2)C1` [Example 1.012] belongs 100 to 1000 nM; to `CC1(C)CC(N2CC(CC(=O)NC(C)(C)c3ccccn3)(NC(=O)c3cc(-c4ccc(F)cc4F)on3)C2)CCO1` (centres unmarked) [Example 1.013], 5 to 100 nM.

As for `CC(C)(NC(=O)CC1(NC(=O)c2cc(-c3ccc(F)cc3F)on2)CN(C2CC3CC3C2)C1)c1ccccn1` (centres unmarked) [Example 1.014], the IC50 fell in the range of 5 to 100 nM. Molecule `CC(C)(NC(=O)CC1(NC(=O)c2cc(-c3ccc(F)cc3F)on2)CN(C2CC3(CC3)C2)C1)c1ccccn1` [Example 1.015] yielded an IC50 of 5 to 100 nM. The figure for `CC(C)CN1CC(CC(=O)NC(C)(C)c2cncc(Cl)c2)(NC(=O)c2cc(-c3ccc(F)cc3F)on2)C1` [Example 1.016] is 5 to 100 nM; for `COc1ccc(F)cc1C(C)(C)NC(=O)CC1(NC(=O)c2nnc(-c3ccc(F)cc3F)s2)CN([C@H]2CC[C@](C)(O)CC2)C1` [Example 1.017] it is 5 to 100 nM. The figure for `CC(CN1CC(CC(=O)NC(C)(C)c2ccccn2)(NC(=O)c2cc(-c3ccc(F)cc3F)on2)C1)C(F)(F)F` (centres unmarked) [Example 1.018] is 100 to 1000 nM; for `CC(C)(NC(=O)CC1(NC(=O)c2cc(-c3ccc(F)cc3F)on2)CN(CCC(F)(F)F)C1)c1ccccn1` [Example 1.019] it is 100 to 1000 nM; for `CC(C)(NC(=O)CC1(NC(=O)c2cc(-c3ccc(F)cc3F)on2)CN(CC2CCC2)C1)c1ccccn1` [Example 1.020] it is 5 to 100 nM. To `CC(C)(NC(=O)CC1(NC(=O)c2cc(-c3ccc(F)cc3F)on2)CN([C@H]2CC[C@](C)(O)CC2)C1)c1ncccc1F` [Example 1.021] belongs 5 to 100 nM; to `CC(C)(NC(=O)CC1(NC(=O)c2nnc(-c3ccc(F)cc3F)s2)CN([C@H]2CC[C@](C)(O)CC2)C1)c1ncccc1F` [Example 1.022], 5 to 100 nM. `CC(C)(NC(=O)CC1(NC(=O)c2cn(-c3ccc(F)cc3F)cn2)CN(C2CCCCC2)C1)c1cccc(Cl)c1` [Example 1.023] came in with an IC50 of 1000 to 20000 nM. `CC(C)(NC(=O)CC1(NC(=O)c2nnc(-c3ccc(F)cc3F)s2)CN([C@H]2CC[C@](C)(O)CC2)C1)c1cc(F)ccc1F` [Example 1.024] returned an IC50 of 5 to 100 nM. `CC(C)(NC(=O)CC1(NC(=O)c2nnc(-c3ccc(F)cc3F)s2)CN([C@H]2CC[C@](C)(O)CC2)C1)c1cccc(C#N)c1` [Example 1.025] returned an IC50 of 5 to 100 nM. Take `Cc1cccc(C(C)(C)NC(=O)CC2(NC(=O)c3cc(-c4ccc(F)cc4F)on3)CN(CC(C)C)C2)n1` [Example 1.026]: the IC50 fell in the range of 5 to 100 nM. Consider `Cc1cccc(C(C)(C)NC(=O)CC2(NC(=O)c3nnc(-c4ccc(F)cc4F)s3)CN(CC(C)C)C2)n1` [Example 1.027], for which the IC50 lay within 5 to 100 nM. To `CC(C)(NC(=O)CC1(NC(=O)c2nnc(-c3ccc(F)cc3F)s2)CN([C@H]2CC[C@](C)(O)CC2)C1)c1cc(F)cc(F)c1` [Example 1.028] belongs 5 to 100 nM; to `CC(C)(NC(=O)CC1(NC(=O)c2cc(-c3ccc(F)cc3F)on2)CN(CC2CCCC2)C1)c1ccccn1` [Example 1.029], 5 to 100 nM. The molecule `Cc1cc(C)nc(C(C)(C)NC(=O)CC2(NC(=O)c3nnc(-c4ccc(F)cc4F)s3)CN(CC3CC3)C2)n1` [Example 1.030] displayed an IC50 of 5 to 100 nM. To `Cc1cc(C)nc(C(C)(C)NC(=O)CC2(NC(=O)c3nnc(-c4ccc(F)cc4F)s3)CN([C@H]3CC[C@](C)(O)CC3)C2)c1` [Example 1.031] belongs less than 5 nM; to `Cc1cccc(C(C)(C)NC(=O)CC2(NC(=O)c3nnc(-c4ccc(F)cc4F)s3)CN([C@H]3CC[C@](C)(O)CC3)C2)n1` [Example 1.032], less than 5 nM. To `CC(C)(NC(=O)CC1(NC(=O)c2nnc(-c3ccc(F)cc3F)s2)CN([C@H]2CC[C@](C)(O)CC2)C1)c1ncccn1` [Example 1.033] belongs 5 to 100 nM; to `CC(C)(NC(=O)CC1(NC(=O)c2cc(-c3ccc(F)cc3F)on2)CN([C@H]2CC[C@@](C)(O)CC2)C1)c1ccccn1` [Example 1.034], 100 to 1000 nM; to `CC(C)(NC(=O)CC1(NC(=O)c2cc(-c3ccc(F)cc3F)on2)CN([C@H]2CC[C@](C)(O)CC2)C1)c1ccccn1` [Example 1.035], 5 to 100 nM.

For the molecule `CC(C)CN1CC(CC(=O)NC(C)(C)c2cc(F)cc(F)c2)(NC(=O)c2cc(-c3ccc(F)cc3F)on2)C1` [Example 1.036], the 50% inhibitory concentration (IC50) is 5 to 100 nM. As for `Cc1cc(C)nc(C(C)(C)NC(=O)CC2(NC(=O)c3cc(-c4ccc(F)cc4F)on3)CN(CC(C)C)C2)n1` [Example 1.037], the IC50 fell in the range of 5 to 100 nM. In turn, `CC(C)(NC(=O)CC1(NC(=O)c2nnc(-c3ccc(F)cc3F)s2)CN(CC2CC2)C1)c1cccc(Cl)c1` [Example 1.038] had an IC50 of 5 to 100 nM. The figure for `Cc1cc(C)nc(C(C)(C)NC(=O)CC2(NC(=O)c3nnc(-c4ccc(F)cc4F)s3)CN(CC(C)C)C2)n1` [Example 1.039] is 5 to 100 nM; for `CC(C)CN1CC(CC(=O)NC(C)(C)c2cccc(Cl)c2)(NC(=O)c2nnc(-c3ccc(F)cc3F)s2)C1` [Example 1.040] it is 5 to 100 nM.

In turn, `Cc1ccnc(C(C)(C)NC(=O)CC2(NC(=O)c3nnc(-c4ccc(F)cc4F)s3)CN([C@H]3CC[C@](C)(O)CC3)C2)n1` [Example 1.041] came in with an IC50 of 5 to 100 nM. The figure for `CC(C)(NC(=O)CC1(NC(=O)c2nnc(-c3ccc(F)cc3F)s2)CN([C@H]2CC[C@](C)(O)CC2)C1)c1cccc(F)c1` [Example 1.042] is less than 5 nM.
